pIC50: −log10 of the molar value. The source made the active and inactive calls. The calls are words filed in the database; no cut-off is given here.
Assays:
L1210 = assay: Antiproliferative activity against mouse L1210 cells after 72 hrs by MTT assay; format: functional, cell-based; conditions: L1210, 72 h
K562 = assay: Antiproliferative activity against human K562 cells after 72 hrs by MTT assay; format: functional, cell-based; conditions: K562, 72 h
[1] = Resistance index, ratio of IC50 for human K562/4 cells to IC50 for human K562 cells; format: functional
[2] = Antiproliferative activity against human K562/4 cells after 72 hrs by MTT assay; format: functional, cell-based; conditions: K562/4, 72 h
CCRF-CEM = assay: Antiproliferative activity against human CEM cells after 72 hrs by MTT assay; format: functional, cell-based
HeLa = assay: Antiproliferative activity against human HeLa cells after 72 hrs by MTT assay; format: functional, cell-based
HCT-116 [3] = assay: Antiproliferative activity against human HCT116 cells after 72 hrs by MTT assay; format: functional, cell-based; conditions: HCT-116, 72 h
HCT-116 [4] = assay: Antiproliferative activity against p53 deficient human HCT116 cells after 72 hrs by MTT assay; format: functional, cell-based; conditions: HCT-116, 72 h
T-24 [5] = assay: Induction of apoptosis n human T24 cells assessed as PARP cleavage at 0.5 to 1 uM after 18 hrs by Western blot method; format: functional, cell-based
[6] = biological target: T1, DNA topoisomerase 1 (Homo sapiens) (UniProt P11387); assay: Inhibition of human DNA topoisomerase 1 assessed as decrease in relaxation of pBR322 at 20 uM after 30 to 40 mins by agarose gel electrophoresis
T1 sequence (whole entry): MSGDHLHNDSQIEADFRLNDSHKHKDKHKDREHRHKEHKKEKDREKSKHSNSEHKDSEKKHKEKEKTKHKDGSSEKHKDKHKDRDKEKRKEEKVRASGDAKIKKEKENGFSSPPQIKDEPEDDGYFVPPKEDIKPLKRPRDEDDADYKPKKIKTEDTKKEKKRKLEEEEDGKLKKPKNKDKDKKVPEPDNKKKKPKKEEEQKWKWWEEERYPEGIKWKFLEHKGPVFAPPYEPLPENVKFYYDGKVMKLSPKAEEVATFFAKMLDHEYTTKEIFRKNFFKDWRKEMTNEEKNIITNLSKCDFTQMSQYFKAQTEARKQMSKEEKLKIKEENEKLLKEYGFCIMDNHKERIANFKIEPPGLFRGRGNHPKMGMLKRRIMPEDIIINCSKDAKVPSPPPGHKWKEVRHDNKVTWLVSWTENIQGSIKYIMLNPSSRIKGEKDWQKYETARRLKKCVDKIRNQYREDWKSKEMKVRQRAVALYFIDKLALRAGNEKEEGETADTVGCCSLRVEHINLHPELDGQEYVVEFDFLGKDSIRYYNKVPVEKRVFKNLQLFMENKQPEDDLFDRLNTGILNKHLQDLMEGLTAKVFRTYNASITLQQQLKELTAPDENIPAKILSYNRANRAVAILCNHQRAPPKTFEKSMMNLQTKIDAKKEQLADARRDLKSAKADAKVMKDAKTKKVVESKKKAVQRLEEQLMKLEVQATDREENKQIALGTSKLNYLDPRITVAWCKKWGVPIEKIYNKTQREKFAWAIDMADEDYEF

Calf thymus DNA [7] = assay: Binding affinity to calf thymus DNA; format: nucleic-acid assay; conditions: Bos taurus
T-24 [8] = assay: Induction of reactive oxygen species generation in human T24 cells at 1 uM after 30 mins by H2DCFDA dye-based flow cytometric method; format: functional, cell-based
Calf thymus DNA [9] = assay: Binding affinity to calf thymus double stranded DNA at 10 uM by fluorescence spectrophotometer; format: nucleic-acid assay; conditions: Bos taurus
T-24 [10] = assay: Induction of apoptosis n human T24 cells assessed as downregulation of Bcl-2 levels at 0.5 to 1 uM after 18 hrs by Western blot method; format: functional, cell-based
T-24 [11] = assay: Induction of apoptosis n human T24 cells assessed as upregulation of Bak levels at 0.5 to 1 uM after 18 hrs by Western blot method; format: functional, cell-based
T-24 [12] = assay: Growth inhibition of human T24 cells after 72 hrs by cell impedance method; format: functional, cell-based; conditions: T-24, 72 h
T-24 [13] = assay: Induction of apoptosis n human T24 cells at 1 uM after 24 hrs by annexin V-FITC/propidium iodide staining-based flow cytometric method; format: functional, cell-based
HMEC-1 = assay: Antiproliferative activity against HMEC1 cells after 72 hrs by MTT assay; format: cell-based; conditions: Homo sapiens, HMEC-1, 72 h
T-24 [14] = assay: Upregulation of total p53 levels in human T24 cells at 0.5 to 1 uM after 18 hrs by Western blot method; format: cell-based; conditions: t-24, 18 h

pIC50 (L1210) | pIC50 (K562) | pIC50 (CCRF-CEM) | pIC50 (HeLa) | pIC50 (HCT-116 [3]) | pIC50 (HCT-116 [4]) | inhibition [6] | Kb (Calf thymus DNA [7]) | Activity (Calf thymus DNA [9]) | Structure (SMILES) | Ratio IC50 [1] | pIC50 [2] | Activity (T-24 [5]) | Activity (T-24 [8]) | Activity (T-24 [10]) | Activity (T-24 [11]) | pIC50 (T-24 [12]) | Activity (T-24 [13]) | pIC50 (HMEC-1) | Activity (T-24 [14])
5.42 | 5.89 | 5.48 | 5.44 | 6.30 | 6.00 |  |  |  | Cc1cc(O)c2c3c4c(cc(O)c13)C(C)(C)C(=O)c1c(O)c(CNCCO)c(O)c(c1-4)C2=O | 20 | 4.71 |  |  |  |  |  |  |  | 
6.15 | 6.52 | 6.30 | 7.00 | 6.52 | 7.00 | inactive | 1.1 ×10⁴ /M | inactive | Cc1cc(O)c2c3c4c(cc(O)c13)C(C)(C)C(=O)c1c(O)cc(O)c(c1-4)C2=O [HELIOMYCIN] |  | 6.40 | inactive | inactive | inactive | inactive | 4.59 | inactive | 6.30 | Toxic

— ChEMBL document CHEMBL4138182, “Aminomethylation of heliomycin: Preparation and anticancer characterization of the first series of semi-synthetic derivatives” (Eur J Med Chem, 2018)
